Where a SMILES comes first, the peptide text is derived from it. [ ]: non-standard residue; d: D form. Aoe = N[C@@H](CCCCCC(=O)[C@@H]1CO1)C(=O)O
System: J77 cells
Assay: CD3 clustering in the central region of the immunological synapse
Assay type: cell-based, human
Settings: J77 cells, relative to cells transfected with the deficient mutant or lymphocytes treated with TSA; Figure 5B

Row | Compound | percentage of mature synapses
1 | CCCC(=O)[O-].[Na+] [sodium butyrate] | neither trapoxin B nor sodium butyrate modified it in a significant manner
2 | O=C1N[C@@H](Cc2ccccc2)C(=O)N2CCC[C@@H]2C(=O)N[C@@H](CCCCCC(=O)[C@@H]2CO2)C(=O)N[C@H]1Cc1ccccc1 [trapoxin B] (cyclo(FF[dP][Aoe])) | neither trapoxin B nor sodium butyrate modified it in a significant manner

— patent EP1707622A1, “USE OF COMPOUNDS THAT REGULATE HDAC6 TUBULIN DEACETYLASE ACTIVITY IN THE PREPARATION OF PHARMACEUTICAL COMPOSITIONS, METHOD OF IDENTIFYING THE AFOR[…], SAID PHARMACEUTICAL COMPOUNDS AND APPLICATIONS THEREOF” (UNIVERSIDAD AUTONOMA DE MADRID CIUDAD UNIVERSITARIA …, priority 2004, dated 2005)
